Data as given in patent US20100317046A1, “Non-Endogenous, Constitutively Activated Versions of Human G Protein Coupled Receptor: FSHR” (priority 2002, published 2010).
Where a chain is given by its changes, count along the chain named. pEC50: −log10 of the molar value.

Experiments:
[1] = target: T1, non-endogenous FSHR ("L460R") (Homo sapiens, UniProt P23945, E197A/L198V/L460R/N112T); experiment: Alpha Screen cAMP accumulation, non-endogenous constitutively activated FSHR (L460R); assay type: cell-based; settings: L460R versus WT, FIG. 3
T1 construct: expressed in transfected cells
T1 sequence (P23945 18-695 N112T/E197A/L198V/L460R): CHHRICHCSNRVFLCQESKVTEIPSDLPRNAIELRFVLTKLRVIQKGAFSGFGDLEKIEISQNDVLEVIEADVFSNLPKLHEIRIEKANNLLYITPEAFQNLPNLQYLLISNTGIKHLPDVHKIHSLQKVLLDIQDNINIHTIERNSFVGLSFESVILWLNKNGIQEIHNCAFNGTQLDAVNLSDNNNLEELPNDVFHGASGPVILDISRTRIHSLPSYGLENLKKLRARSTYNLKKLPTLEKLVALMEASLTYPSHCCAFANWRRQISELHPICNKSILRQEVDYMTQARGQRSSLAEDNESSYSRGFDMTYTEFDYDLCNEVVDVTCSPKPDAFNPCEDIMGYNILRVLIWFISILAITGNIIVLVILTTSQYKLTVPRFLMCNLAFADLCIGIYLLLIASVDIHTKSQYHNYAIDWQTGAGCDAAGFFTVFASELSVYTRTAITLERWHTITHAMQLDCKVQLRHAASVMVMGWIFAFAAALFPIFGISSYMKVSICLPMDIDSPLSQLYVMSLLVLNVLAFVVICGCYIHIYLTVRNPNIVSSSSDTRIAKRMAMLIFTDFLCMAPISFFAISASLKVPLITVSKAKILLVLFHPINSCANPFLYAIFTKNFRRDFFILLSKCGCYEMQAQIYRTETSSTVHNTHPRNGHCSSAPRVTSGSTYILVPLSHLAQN
Method: (§1) Approximately 12×10^6 293 cells are plated on a 15 cm tissue culture plate. Grown in DME High Glucose Medium containing ten percent fetal bovine serum and one percent sodium pyruvate, L-glutamine, and anti-biotics. Twenty-four hours following plating of 293 cells (or to ˜80% confluency), the cells are transfected using 12 μg of DNA. The 12 μg of DNA is combined with 60 μl of lipofectamine and 2 mL of DME High Glucose Medium without serum. The medium is aspirated from the plates and the cells are washed once with medium without serum. The DNA, lipofectamine, and medium mixture are added to the plate along with 10 mL of medium without serum. Following incubation at 37 degrees Celsius for four to five hours, the medium is aspirated and 25 ml of medium containing serum is added. Twenty-four hours following transfection, the medium is aspirated again, and fresh medium with serum is added. Forty-eight hours following transfection, the medium is aspirated and medium with serum is added containing geneticin (G418 drug) at a final concentration of 500 μg/mL. The transfected cells will undergo selection for positively transfected cells containing the G418 resistant gene. […]
(§2) The media from Example 3(b) above was aspirated and rinsed 1× with PBS (5-10 ml/flask). […] Following incubation, the wells were read on Alpha Quest and measured for light units. […]

endogenous FSHR ("WT") = target: T2, endogenous FSHR ("WT") (Homo sapiens, UniProt P23945, E197A/L198V/N112T); experiment: Alpha Screen cAMP accumulation, endogenous FSHR (WT); assay type: cell-based; settings: 293 cells expressing WT FSHR, FIG. 3
T2 construct: The 2.1 kb PCR fragment was then cloned into EcoRV-EcoRI site of CMVp expression vector; expressed in transfected cells
T2 sequence (P23945 18-695 N112T/E197A/L198V): T1 sequence (P23945 18-695 N112T/E197A/L198V/L460R) with R443L
Method: as §1, §2

efficacy for L460R version of FSHR compared with the WT receptor [1]: better efficacy | pEC50 (endogenous FSHR ("WT")): ~8.52
Structure (SMILES): CCCCCc1ccc(C(=O)N2CCCCC2C(=O)Nc2ccc3c(c2)c2ccccc2n3CC)c(=O)o1 (centres unmarked) [Compound A, 1-[(2-oxo-6-pentyl-2H-pyran)-3-carbonyl]-piperidine-2-carboxylic acid-3-(9-ethylcarbazolyl) amide]
